From US20160002248A1, “GLS1 INHIBITORS FOR TREATING DISEASE” (Board of Regents, The University of Texas System, priority 2014, published 2016)

Experiments:
[1] = test system: A549 cells; experiment: Proliferation Assay (A549 cell viability, Cell Titer Fluor); format: cell-based; settings: Homo sapiens, 72 hours
Outline: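 A549 cells seeded at 1000 cells/well, left 24 h, then exposed to compound for 72 h at 37 °C, 5% CO2, final DMSO 0.5% (v/v). Viability read by Cell Titer Fluor fluorescence; EC50 from four-parameter logistic fit.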

[2] = biological target: T1, purified recombinant human GAC (GLS1) (Homo sapiens, UniProt O94925); experiment: GLS1 Enzymatic Activity Assay (dual-coupled enzymatic assay); format: biochemical
T1 sequence (O94925 55-598 isoform O94925-3 limits assumed): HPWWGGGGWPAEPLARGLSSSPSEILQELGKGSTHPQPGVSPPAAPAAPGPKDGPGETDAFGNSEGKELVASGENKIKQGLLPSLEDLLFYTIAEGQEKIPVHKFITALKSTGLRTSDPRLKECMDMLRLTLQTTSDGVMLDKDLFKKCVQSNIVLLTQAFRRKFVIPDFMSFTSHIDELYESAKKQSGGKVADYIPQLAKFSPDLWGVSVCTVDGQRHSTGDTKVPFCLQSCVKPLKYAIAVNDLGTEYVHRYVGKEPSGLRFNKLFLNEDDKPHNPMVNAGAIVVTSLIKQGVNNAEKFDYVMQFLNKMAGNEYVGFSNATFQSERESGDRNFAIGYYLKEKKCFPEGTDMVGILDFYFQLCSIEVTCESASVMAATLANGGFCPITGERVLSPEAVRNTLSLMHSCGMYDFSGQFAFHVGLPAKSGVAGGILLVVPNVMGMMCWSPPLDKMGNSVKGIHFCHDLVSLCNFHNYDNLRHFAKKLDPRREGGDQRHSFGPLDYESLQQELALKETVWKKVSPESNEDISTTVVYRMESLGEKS
Outline: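 Recombinant human GAC (2 nM) preincubated with 50 mM potassium phosphate, then inhibitor (10 min each, RT); 1 mM glutamine, pH 7.4 Hepes buffer, 1% DMSO. Glutamate coupled via glutamate oxidase/HRP to resorufin (Ex 530/Em 590), kinetic or 20-min endpoint; IC50 by four-parameter logistic fit.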

| Structure (SMILES) | EC50 [1] [nM] | IC50 [2] [nM] |
| --- | --- | --- |
| COc1ncc(-c2c(C3CC3)[nH]c3nnc(CCCCn4cc(C(=O)NCc5ccc(C)nc5)nn4)cc23)c(OC)n1 [Example 168, 1-{4-[6-cyclopropyl-5-(2,4-dimethoxypyrimidin-5-yl)-7H-pyrrolo[2,3-c]pyridazin-3-yl]butyl}-N-[(6-methylpyridin-3-yl)methyl]-1H-1,2,3-triazole-4-carboxamide] | 500 to 5000 | < 100 |
| Cc1ccc(CNC(=O)c2cn(CCCCc3cc4c(-c5cccc(OC(F)(F)F)c5)c(C5CC5)[nH]c4nn3)nn2)cn1 [Example 170, 1-(4-{6-cyclopropyl-5-[3-(trifluoromethoxy)phenyl]-7H-pyrrolo[2,3-c]pyridazin-3-yl}butyl)-N-[(6-methylpyridin-3-yl)methyl]-1H-1,2,3-triazole-4-carboxamide] | 100 to 500 | < 100 |
| COc1ncc(-c2c(C3CC3)[nH]c3nnc(CCCCn4cc(C(=O)NCc5cccc(OC(F)(F)F)c5)nn4)cc23)c(OC)n1 [Example 173, 1-{4-[6-cyclopropyl-5-(2,4-dimethoxypyrimidin-5-yl)-7H-pyrrolo[2,3-c]pyridazin-3-yl]butyl}-N-{[3-(trifluoromethoxy)phenyl]methyl}-1H-1,2,3-triazole-4-carboxamide] | 100 to 500 | < 100 |
| O=C(NCc1cccc(OC(F)(F)F)c1)c1cn(CCCCc2cc3c(-c4ccccn4)c(-c4ccccc4F)[nH]c3nn2)nn1 [Example 175, 1-{4-[6-(2-fluorophenyl)-5-(pyridin-2-yl)-7H-pyrrolo[2,3-c]pyridazin-3-yl]butyl}-N-{[3-(trifluoromethoxy)phenyl]methyl}-1H-1,2,3-triazole-4-carboxamide] | 500 to 5000 | < 100 |
| COc1cccc(-c2cc3cc(CCCCn4cc(C(=O)NCc5ccc(C)nc5)nn4)nnc3[nH]2)c1 [Example 176, 1-{4-[6-(3-methoxyphenyl)-7H-pyrrolo[2,3-c]pyridazin-3-yl]butyl}-N-[(6-methylpyridin-3-yl)methyl]-1H-1,2,3-triazole-4-carboxamide] | 100 to 500 | < 100 |
| O=C(NCc1cccc(OC(F)(F)F)c1)c1cn(CCCCc2cc3c(C4CC4)c(-c4ccccn4)[nH]c3nn2)nn1 [Example 177, 1-(4-(5-cyclopropyl-6-(pyridin-2-yl)-7H-pyrrolo[2,3-c]pyridazin-3-yl)butyl)-N-(3-(trifluoromethoxy)benzyl)-1H-1,2,3-triazole-4-carboxamide 2,2,2-trifluoroacetate] | 500 to 5000 | < 100 |
| COc1cccnc1-c1c(C2CC2)[nH]c2nnc(CCCCn3cc(C(=O)NCc4cccc(OC(F)(F)F)c4)nn3)cc12 [Example 178, 1-{4-[6-cyclopropyl-5-(3-methoxypyridin-2-yl)-7H-pyrrolo[2,3-c]pyridazin-3-yl]butyl}-N-{[3-(trifluoromethoxy)phenyl]methyl}-1H-1,2,3-triazole-4-carboxamide] | 100 to 500 | < 100 |
| CC(=O)Nc1ccc(-c2c(C3CC3)[nH]c3nnc(CCCCn4cc(C(=O)NCc5cccc(OC(F)(F)F)c5)nn4)cc23)cc1 [Example 180, 1-{4-[6-cyclopropyl-5-(4-acetamidophenyl)-7H-pyrrolo[2,3-c]pyridazin-3-yl]butyl}-N-{[3-(trifluoromethoxy)phenyl]methyl}-1H-1,2,3-triazole-4-carboxamide] | 500 to 5000 | < 100 |
| NS(=O)(=O)c1cccc(-c2c(C3CC3)[nH]c3nnc(CCCCn4cc(C(=O)NCc5cccc(OC(F)(F)F)c5)nn4)cc23)c1 [Example 181, 1-{4-[6-cyclopropyl-5-(3-sulfamoylphenyl)-7H-pyrrolo[2,3-c]pyridazin-3-yl]butyl}-N-{[3-(trifluoromethoxy)phenyl]methyl}-1H-1,2,3-triazole-4-carboxamide] | 500 to 5000 | < 100 |
| Cc1ccc(CNC(=O)c2cn(CCCCc3cc4cc(-c5ccc(OC(F)(F)F)cc5)[nH]c4nn3)nn2)cn1 [Example 182, N-[(6-methylpyridin-3-yl)methyl]-1-(4-{6-[4-(trifluoromethoxy)phenyl]-7H-pyrrolo[2,3-c]pyridazin-3-yl}butyl)-1H-1,2,3-triazole-4-carboxamide] | 100 to 500 | < 100 |
| Cc1ccc(CNC(=O)c2cn(CCCCc3cc4cc(-c5ccc(F)cc5F)[nH]c4nn3)nn2)cn1 [Example 183, 1-{4-[6-(2,4-difluorophenyl)-7H-pyrrolo[2,3-c]pyridazin-3-yl]butyl}-N-[(6-methylpyridin-3-yl)methyl]-1H-1,2,3-triazole-4-carboxamide] | 100 to 500 | < 100 |
| CC(C)COC(=O)N1CC(c2cc3cc(CCCCn4cc(C(=O)NCc5cc(OC(F)(F)F)ccc5F)nn4)nnc3[nH]2)C1 [Example 185, 2-methylpropyl 3-(3-{4-[4-({[2-fluoro-5-(trifluoromethoxy)phenyl]methyl}carbamoyl)-1H-1,2,3-triazol-1-yl]butyl)-7H-pyrrolo[2,3-c]pyridazin-6-yl)azetidine-1-carboxylate] | < 100 | < 100 |

Next, values leading:

| EC50 [1] [nM] | IC50 [2] [nM] | Structure (SMILES) |
| --- | --- | --- |
| 100 to 500 | < 100 | CC(C)(O)c1ccc(CNC(=O)c2cn(CCCCc3cc4c(-c5cccc(OC(F)(F)F)c5)c(C5CC5)[nH]c4nn3)nn2)cn1 [Example 169, 1-(4-{6-cyclopropyl-5-[3-(trifluoromethoxy)phenyl]-7H-pyrrolo[2,3-c]pyridazin-3-yl}butyl)-N-{[6-(2-hydroxypropan-2-yl)pyridin-3-yl]methyl}-1H-1,2,3-triazole-4-carboxamide] |
| < 100 | < 100 | CC(C)(O)c1ccc(CNC(=O)c2cn(CCCCc3cc4c(-c5ccoc5)c(C5CC5)[nH]c4nn3)nn2)cn1 [Example 171, 1-{4-[6-cyclopropyl-5-(furan-3-yl)-7H-pyrrolo[2,3-c]pyridazin-3-yl]butyl}-N-{[6-(2-hydroxypropan-2-yl)pyridin-3-yl]methyl}-1H-1,2,3-triazole-4-carboxamide] |
| < 100 | < 100 | Cc1ccc(CNC(=O)c2cn(CCCCc3cc4c(-c5ccoc5)c(C5CC5)[nH]c4nn3)nn2)cn1 [Example 172, 1-{4-[6-cyclopropyl-5-(furan-3-yl)-7H-pyrrolo[2,3-c]pyridazin-3-yl]butyl}-N-[(6-methylpyridin-3-yl)methyl]-1H-1,2,3-triazole-4-carboxamide] |
| 100 to 500 | < 100 | CC(C)(O)c1ccc(CNC(=O)c2cn(CCCCc3cc4c(C5CC5)c(-c5ccccc5F)[nH]c4nn3)nn2)cn1 [Example 174, 1-{4-[5-cyclopropyl-6-(2-fluorophenyl)-7H-pyrrolo[2,3-c]pyridazin-3-yl]butyl}-N-{[6-(2-hydroxypropan-2-yl)pyridin-3-yl]methyl}-1H-1,2,3-triazole-4-carboxamide] |
| 500 to 5000 | < 100 | CC(=O)Nc1ccc(-c2c(C3CC3)[nH]c3nnc(CCCCn4cc(C(=O)NCc5ccc(C)nc5)nn4)cc23)cc1 [Example 179, 1-{4-[6-cyclopropyl-5-(4-acetamidophenyl)-7H-pyrrolo[2,3-c]pyridazin-3-yl]butyl}-N-[(6-methylpyridin-3-yl)methyl]-1H-1,2,3-triazole-4-carboxamide] |
| < 100 | < 100 | O=C(NCc1cc(C(F)(F)F)ccn1)c1cn(CCCCc2cc3c(-c4ccoc4)c(C4CC4)[nH]c3nn2)nn1 [Example 184, 1-{4-[6-cyclopropyl-5-(furan-3-yl)-7H-pyrrolo[2,3-c]pyridazin-3-yl]butyl}-N-{[4-(trifluoromethyl)pyridin-2-yl]methyl}-1H-1,2,3-triazole-4-carboxamide] |
| < 100 | < 100 | O=C(NCc1cccc(C(F)(F)F)n1)c1cn(CCCCc2cc3c(-c4ccoc4)c(C4CC4)[nH]c3nn2)nn1 [Example 186, 1-{4-[6-cyclopropyl-5-(furan-3-yl)-7H-pyrrolo[2,3-c]pyridazin-3-yl]butyl}-N-{[6-(trifluoromethyl)pyridin-2-yl]methyl}-1H-1,2,3-triazole-4-carboxamide] |
| 100 to 500 | < 100 | O=C(NCc1ccc(C(F)(F)F)cn1)c1cn(CCCCc2cc3c(-c4ccoc4)c(C4CC4)[nH]c3nn2)nn1 [Example 187, 1-{4-[6-cyclopropyl-5-(furan-3-yl)-7H-pyrrolo[2,3-c]pyridazin-3-yl]butyl}-N-{[5-(trifluoromethyl)pyridin-2-yl]methyl}-1H-1,2,3-triazole-4-carboxamide] |
| 100 to 500 | < 100 | O=C(NCc1ccc(C(F)(F)F)nc1)c1cn(CCCCc2cc3c(-c4ccoc4)c(C4CC4)[nH]c3nn2)nn1 [Example 188, 1-{4-[6-cyclopropyl-5-(furan-3-yl)-7H-pyrrolo[2,3-c]pyridazin-3-yl]butyl}-N-{[6-(trifluoromethyl)pyridin-3-yl]methyl}-1H-1,2,3-triazole-4-carboxamide] |
